In US20240180888A1, “C5AR1 INHIBITORS FOR TREATING […] REACTIONS TO TAXANES” (Dompe' Farmaceutici SPA, priority 2021, published 2024):
Where two headings read alike, the source gives them in different places.

T1: complement component 5a receptor 1 (C5aR1) (Homo sapiens, UniProt P21730)
T1 construct: purchased OriGene TP303784
T1 sequence (P21730 1-350): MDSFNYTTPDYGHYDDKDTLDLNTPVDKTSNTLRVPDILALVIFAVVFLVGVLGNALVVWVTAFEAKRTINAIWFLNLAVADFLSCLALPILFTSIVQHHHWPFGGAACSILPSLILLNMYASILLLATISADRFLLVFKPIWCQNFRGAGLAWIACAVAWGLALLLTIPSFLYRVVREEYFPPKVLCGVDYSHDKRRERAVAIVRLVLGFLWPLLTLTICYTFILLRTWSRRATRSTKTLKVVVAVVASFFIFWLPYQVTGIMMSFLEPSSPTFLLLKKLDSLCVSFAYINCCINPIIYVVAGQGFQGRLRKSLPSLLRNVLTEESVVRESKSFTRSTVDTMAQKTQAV

B1: C5a: anaphylatoxin, pro-inflammatory polypeptide, the natural ligand of the receptor C5aR1 (protein, UniProt P01031 678-751, looked up)
C5a anaphylatoxin: TLQKKIEEIAAKYKHSVVKKCCYDGACVNNDETCEQRAARISLGPRCIKAFTECCVVASQLRANISHKDMQLGR
modifications: C5a anaphylatoxin
notes: anaphylatoxin, pro-inflammatory polypeptide, the natural ligand of the receptor C5aR1

How the values were obtained:
[1] = target: T1, complement component 5a receptor 1 (C5aR1); assay: BIAcore SPR binding to C5aR1 immobilised on sensorchip CM5 via c-Myc-tag
Text: BIAcore technology was used to analyze the interaction between Paclitaxel and complement component 5a receptor 1 (C5aR1) (Example 1), complement component 5a receptor 2 (C5AR2) (Example 2) or complement component 5a (Example 3).
The BIAcore systems exploit the phenomenon of Surface Plasmon Resonance (SPR) to monitor interactions between molecules in real time. Briefly, SPR phenomenon occurs in thin conducting films at an interface between media of different refractive index. In BIAcore systems, the media are the glass of the sensorchip and the sample solution, and the conducting film is a thin layer of gold on the sensorchip surface. BIAcore monitors the interaction between two molecules, one attached to the sensor surface, called ligand, and the other one free in solution, and called analyte.
An anti-c-Myc antibody (9E10, sc-40, Santa Cruz Technology) was immobilized on a sensorchip CM5 (#29149604, Cytiva). In details, the antibody was diluted at a concentration of 50 μg/ml in 10 mM acetate buffer at pH 4.5, and injected over the surface of the sensorchip. In details, the dextran matrix on the sensorchip surface was first activated with a mixture of […] (EDC) and N-hydroxysuccinimide (NHS) to give reactive succinimide esters. Anti-Myc antibodies were then passed over the surface and the esters reacted spontaneously with uncharged amino groups to covalently link the ligand to the dextran. Then, the surface was deactivated by ethanolamine-HCl.
Once the antibody was immobilized, the receptor was captured on the surface of the sensorchip. This procedure allowed the immobilization of the ligand of interest in an oriented way. In particular, C5AR1-cMyc (TP303784, OriGene) at a concentration of 20 μg/ml in Running Buffer (50 mM HEPES buffer, pH 7.0 containing 0.01% CHS, 0.1% CHAPS, and 0.33 mM of lipids) was injected onto the sensorchip prepared above with a flow rate of 5 μI/min.
In details, 5 μM C5a (A144, Complement Technologies) in Running Buffer was injected on C5aR1 surface of sensorchip prepared in Example 1a).
To first evaluate a direct binding of Paclitaxel and C5aR1, the compound was injected on the C5aR1 surface of the sensorchip prepared in Example 1a) at a concentration of 300 μM in Running Buffer.
Running Buffer at different concentrations (from 4.06 to 37.5 μM), injected on the sensorchip for 4 minutes and allowed to dissociate for 5 minutes, flowing Running Buffer without Paclitaxel. In this way, the kinetic constant was evaluated as a function of time.
Also, the affinity value at equilibrium of Paclitaxel/Myc-05aR1 interaction was determined by measuring the steady-state binding levels, through a Scatchard analysis of the RU values at equilibrium.

F11 hybridoma cells = assay: Real Time PCR for IL-8 mRNA expression in differentiated F11 cells; format: cell-based; conditions: 20 h; 10 nM Paclitaxel or 50 nM C5a
Procedure: F11 hybridoma cells (ECACC 08062601), chosen as an alternative model of DRG neurons were cultured in DMEM medium (Euroclone, MI, Italy) supplemented with 10% FBS (Sigma-Aldrich St. Louis, CO, USA), 1% penicillin/streptomycin (Euroclone) and 1% glutamine (Euroclone) at 37° C., in a humidified 95% air-5% CO2 atmosphere. For the experiments, cells were used at 18th passage and seeded at 1×10^4 cells/cm2. After 24 h, cells were differentiated with rat NGF (rNGF) (Sigma). rNGF was dissolved in DMEM with 1% penicillin/streptomycin and 1% glutamine (FBS free) at the final concentration 50 ng/ml. The medium was replaced every 3 days until complete differentiation, which happened after 7 days. […]
For gene expression analysis, the following protocol was used: total RNA was extracted by Trizol reagent, according to the manufacturer's instructions. The total RNA concentration was determined spectrophotometrically in RNAase-free water, and 1 μg aliquots of total RNA were reverse-transcripted into cDNA using ProtoScript First Strand cDNA Synthesis Kit (NEB). […] Relative expression levels were calculated for each sample after normalization against reference gene, using the ΔΔCt method for comparing relative fold expression differences, as previously described [Livak et al., 2001 DOI: 10.1006/meth.2001.1262]. […]

Molecule | Paclitaxel bound to immobilised C5aR1, resonance units ([1]; 300 μM in Running Buffer) | Kd ([1]; 4.06 to 37.5 μM, 4 minutes injection, 5 minutes dissociation, read-out: Kd value (kinetic evaluation)) | Kd ([1]; steady-state RU as a function of analyte concentration, read-out: affinity constant at equilibrium (steady-state binding levels, Scatchard analysis)) | IL-8 relative mRNA expression (F11 hybridoma cells) | binding to immobilised C5aR1 ([1]; 5 μM in Running Buffer)
CC(=O)O[C@H]1C(=O)[C@@]2(C)[C@H]([C@H](OC(=O)c3ccccc3)[C@]3(O)C[C@H](OC(=O)[C@H](O)[C@@H](NC(=O)c4ccccc4)c4ccccc4)C(C)=C1C3(C)C)[C@]1(OC(C)=O)CO[C@@H]1C[C@@H]2O [Paclitaxel] | 300 RU | 670 nM | 525 nM | increase IL-8 expression levels | 
B1 |  |  |  | increases IL-8 expression levels | can bind
